According to US20170273961A1, “NOVEL IMINONITRILE DERIVATIVES” (CURADEV PHARMA, PVT. LTD., priority 2014, published 2017):

Target: T1, IDO1 (Mus musculus, UniProt P28776)
T1 construct: LPS-injected mice have been used as models to study IDO1 expression and activity; from tissue; host or cells: whole animal: LPS-injected C57BL/6 mice, with IDO1 induced in a variety of tissues
Assay: Reduction of LPS induced plasma kynurenine levels in C57BL/6 mice
Format: in vivo
Details: LPS-injected (6 mg/kg i.p.) C57BL/6 mice; test compound given orally 20 h after LPS; plasma KYN by LC/MS/MS at 2 hr post dosing
Text: Inflammatory mediators such as Lipopolysaccharides (LPS) and Interferon-gamma (IFNg) are well-established inducers of IDO1 expression. Intraperitoneal (i.p.) administration of bacterial lipopolysaccharide (LPS) induces peak IDO1 activity in a variety of tissues within one day after LPS administration resulting in the production and release of kynurenine into the bloodstream (Takikawa, O., et al. (1986) J. Biol. Chem. 261:3648-53; Yoshida, H., et al. (1998) Cell 94:739-750). LPS-injected mice have been used as models to study IDO1 expression and activity. Three—eight fed C57 BL/6 mice (age 7-8 weeks, weight: about 20-22 g) were injected intrapritoneally with bacterial lipopolysaccharide (LPS; 26:B6 Sigma) at a concentration of 6 mg/kg. Animals were then housed in normal condition for 20 hours at which time the test compounds were administered orally in formulation containing 30% polyethylene glycol 400 (PEG 400) and 20% propylene glycol (PG) in normal saline (Dosing volume 10 mL/kg). Blood was drawn through retro-orbital bleeds into a tube containing 100 mM EDTA for plasma collection at the following times: just prior to LPS treatment, just prior to test compound dosing (0 hr) and then at 2 hr, 4 hr, 6 hr, 8 hr, 24 hr and 48 hr post-test compound dosing. Plasma KYN and drug levels were determined by LC/MS/MS using an API4000 mass spectrometer (Applied Biosystems) coupled to a Shimadzu Prominence LC system fitted with a C18 column.
The compounds of the invention decrease kynurenine levels. The compounds of the invention trigger a decrease of kynurenine levels at 2 hrs of at least 5%.

T1 sequence (P28776 whole entry): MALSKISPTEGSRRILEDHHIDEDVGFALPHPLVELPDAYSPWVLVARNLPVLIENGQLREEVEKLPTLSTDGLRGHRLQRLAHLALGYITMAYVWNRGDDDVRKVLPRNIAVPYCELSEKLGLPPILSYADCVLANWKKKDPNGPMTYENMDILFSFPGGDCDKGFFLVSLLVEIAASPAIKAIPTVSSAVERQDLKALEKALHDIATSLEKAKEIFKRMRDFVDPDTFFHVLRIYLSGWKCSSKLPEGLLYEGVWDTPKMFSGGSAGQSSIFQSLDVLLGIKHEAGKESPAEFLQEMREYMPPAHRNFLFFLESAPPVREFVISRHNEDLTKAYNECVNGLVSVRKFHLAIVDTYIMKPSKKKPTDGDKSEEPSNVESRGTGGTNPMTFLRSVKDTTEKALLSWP

percentage of decrease of kynurenine level at two hours [%]	Compound
75	Cc1cc(-c2nccc(/C(C#N)=N/c3cccc(F)c3)c2O)ccn1 [Compound 29, N-(3-Fluorophenyl)-3-hydroxy-2′-methyl-[2,4′-bipyridine]-4-carbimidoyl nitrile]
64	CNC(=O)c1cc(-c2nccc(/C(C#N)=N/c3cccc(Cl)c3)c2O)ccn1 [Compound 30, N-(3-Chlorophenyl)-3-hydroxy-2′-(methylcarbamoyl)-[2,4′-bipyridine]-4-carbimidoyl nitrile]
77	N#C/C(=N\c1ccc(F)c(Cl)c1)c1ccnc(-c2cccnc2)c1O [Compound 44, N-(3-Chloro-4-fluorophenyl)-3-hydroxy-[2,3′-bipyridine]-4-carbimidoyl nitrile]
74	N#C/C(=N\c1cccc(F)c1)c1ccncc1O [Compound 35, N-(3-Fluorophenyl)-3-hydroxyisonIcotinimidoyl nitrile]
79	N#C/C(=N\c1ccc(F)c(F)c1)c1ccncc1O [Compound 36, N-(3,4-Difluorophenyl)-3-hydroxyisonicotinimidoyl nitrile]
80	N#C/C(=N\c1cccc(Cl)c1)c1ccncc1O [Compound 33, N-(3-Chlorophenyl)-3-hydroxyisonicotinimidoyl nitrile]
77	N#C/C(=N\c1ccc(F)c(C(F)(F)F)c1)c1ccnc(-c2ccncc2)c1O [Compound 40, N-(4-Fluoro-3-(trifluoromethyl)phenyl)-3-hydroxy-[2,4′-bipyridine]-4-carbimidoyl nitrile]
67	CNC(=O)c1cc(-c2nccc(/C(C#N)=N/c3ccc(F)cc3)c2O)ccn1 [Compound 32, N-(4-Fluorophenyl)-3-hydroxy-2′-(methylcarbamoyl)-[2,4′-bipyridine]-4-carbimidoyl nitrile]
67	N#C/C(=N\c1cccc(C(F)(F)F)c1)c1ccncc1O [Compound 34, 3-Hydroxy-N-(3-(trifluoromethyl)phenyl)isonicotinimidoyl nitrile]
81	N#C/C(=N\c1cccc(F)c1)c1ccnc(-c2ccncc2)c1O [Compound 41, N-(3-Fluorophenyl)-3-hydroxy-[2,4′-bipyridine]-4-carbimidoyl nitrile]
68	CNC(=O)c1cc(-c2nccc(/C(C#N)=N/c3ccc(F)c(F)c3)c2O)ccn1 [Compound 37, N-(3,4-Difluorophenyl)-3-hydroxy-2′-(methylcarbamoyl)-[2,4′-bipyridine]-4-carbimidoyl nitrile]
67	Cc1cc(-c2nccc(/C(C#N)=N/c3ccc(F)c(C(F)(F)F)c3)c2O)ccn1 [Compound 39, N-(4-Fluoro-3-(trifluoromethyl)phenyl)-3-hydroxy-2′-methyl-[2,4′-bipyridine]-4-carbimidoyl nitrile]

Continued, compound first:

Compound	percentage of decrease of kynurenine level at two hours [%]
N#C/C(=N\c1ccccc1Cl)c1ccnc(-c2ccncc2)c1O [Compound 20]	46
N#C/C(=N\c1ccc(F)c(Cl)c1)c1ccnc(-c2ccccc2)c1O [Compound 13, N-(3-Chloro-4-fluorophenyl)-3-hydroxy-2-phenylisonicotinimidoyl nitrile]	46
N#C/C(=N\c1ccc(F)c(Cl)c1)c1ccnc(Nc2ccccc2)c1O [Compound 12, N-(3-Chloro-4-fluorophenyl)-3-hydroxy-2-(phenylamino)isonicotinimidoyl nitrile]	15
Cc1cc(-c2nccc(/C(C#N)=N/c3ccc(F)cc3F)c2O)ccn1 [Compound 27, N-(2,4-Difluorophenyl)-3-hydroxy-2′-methyl-[2,4′-bipyridine]-4-carbimidoyl nitrile]	64
Cc1cc(-c2nccc(/C(C#N)=N/c3ccccc3Cl)c2O)ccn1 [Compound 25, N-(2-Chlorophenyl)-3-hydroxy-2′-methyl-[2,4′-bipyridine]-4-carbimidoyl nitrile]	37
N#C/C(=N\c1ccc(F)c(Cl)c1)c1ccnc(-c2cc(F)nc(F)c2)c1O [Compound 21, N-(3-Chloro-4-fluorophenyl)-2′,6′-difluoro-3-hydroxy-[2,4′-bipyridine]-4-carbimidoyl nitrile]	21
N#C/C(=N\c1ccc(F)c(Cl)c1)c1cc(F)ncc1O [Compound 06, N-(3-Chloro-4-fluorophenyl)-2-fluoro-5-hydroxyIsonicotinimidoyl nitrile]	73
N#C/C(=N\c1cccc(Cl)c1)c1ccnc(-c2ccncc2)c1O [Compound 22, N-(3-Chlorophenyl)-3-hydroxy-[2,4′-bipyridine]-4-carbimidoyl nitrile]	87
N#C/C(=N\c1ccc(F)c(Cl)c1)c1ccnc(Br)c1O [Compound 19, 2-Bromo-N-(3-chloro-4-fluorophenyl)-3-hydroxyIsonicotinimidoyl nitrile]	38
COc1cc(-c2nccc(/C(C#N)=N/c3ccc(F)c(Cl)c3)c2O)ccn1 [Compound 15, N-(3-Chloro-4-fluorophenyl)-3-hydroxy-2′-methoxy-[2,4′-bipyridine]-4-carbimidoyl nitrile]	47
Cc1cc(-c2nc(C)cc(/C(C#N)=N/c3ccc(F)c(Cl)c3)c2O)ccn1 [Compound 26, N-(3-Chloro-4-fluorophenyl)-3-hydroxy-2′,6-dimethyl-[2,4′-bipyridine]-4-carbimidoyl nitrile]	11
Cc1cc(-c2nccc(/C(C#N)=N/c3ccc(F)cc3)c2O)ccn1 [Compound 11, N-(4-Fluorophenyl)-3-hydroxy-2′-methyl-[2,4′-bipyridine]-4-carbimidoyl nitrile]	82
N#C/C(=N\c1ccc(F)c(Cl)c1)c1ccnc(C#N)c1O [Compound 02, N-(3-Chloro-4-fluorophenyl)-2-cyano-3-hydroxyIsonicotinimidoyl nitrile]	45
N#C/C(=N\c1ccc(F)c(F)c1)c1ccnc(-c2ccncc2)c1O [Compound 08, N-(3,4-Difluorophenyl)-3-hydroxy-[2,4′-bipyridine]-4-carbimidoyl nitrile]	83
N#C/C(=N\c1ccc(F)c(C(F)(F)F)c1)c1ccncc1O [Compound 05, N-(4-Fluoro-3-(trifluoromethyl)phenyl)-3-hydroxyisonicotinimidoyl nitrile]	64
Cc1nccc(/C(C#N)=N/c2ccc(F)c(Cl)c2)c1O [Compound 18, N-(3-Chloro-4-fluorophenyl)-3-hydroxy-2-methylisonicotinimidoyl nitrile]	53
COc1cc(/C(C#N)=N/c2ccc(F)c(Cl)c2)c(O)cn1 [Compound 14, N-(3-Chloro-4-fluorophenyl)-5-hydroxy-2-methoxyisonicotinimidoyl nitrile]	18
Cc1cc(-c2nccc(/C(C#N)=N/c3cccc(Cl)c3)c2O)ccn1 [Compound 23, N-(3-Chlorophenyl)-3-hydroxy-2′-methyl-[2,4′-bipyridine]-4-carbimidoyl nitrile]	79
N#C/C(=N\c1ccc(F)c(Cl)c1)c1ccnc(-c2ccncc2)c1O [Compound 04, N-(3-Chloro-4-fluorophenyl)-3-hydroxy-[2,4′-bipyridine]-4-carbimidoyl nitrile]	77
N#C/C(=N\c1ccc(F)c(C(F)(F)F)c1)c1ccnc(C#N)c1O [Compound 03, 2-Cyano-N-(4-fluoro-3-(trifluoromethyl)phenyl)-3-hydroxyisonicotinimidoyl nitrile]	25
Cc1cc(-c2nccc(/C(C#N)=N/c3ccc(F)c(F)c3)c2O)ccn1 [Compound 10, N-(3,4-Difluorophenyl)-3-hydroxy-2′-methyl-[2,4′-bipyridine]-4-carbimidoyl nitrile]	79
Cc1cc(-c2nccc(/C(C#N)=N/c3ccccc3)c2O)ccn1 [Compound 24, 3-Hydroxy-2′-methyl-N-phenyl-[2,4′-bipyridine]-4-carbimidoyl nitrile]	81
N#C/C(=N\c1ccc(F)c(Cl)c1)c1ccnc(-c2ccc3c(c2)OCO3)c1O [Compound 17, 2-(Benzo[d][1,3]dioxol-5-yl)-N-(3-chloro-4-fluorophenyl)-3-hydroxyisonicotinimidoyl nitrile]	10
